{
  "source": "ChEMBL document CHEMBL1201862",
  "about": "“PubChem BioAssay data set” (2004)",
  "key": {"[1]": {"target": "T1, Kappa-type opioid receptor (Homo sapiens, UniProt P41145)", "T1 sequence (P41145 whole entry)": "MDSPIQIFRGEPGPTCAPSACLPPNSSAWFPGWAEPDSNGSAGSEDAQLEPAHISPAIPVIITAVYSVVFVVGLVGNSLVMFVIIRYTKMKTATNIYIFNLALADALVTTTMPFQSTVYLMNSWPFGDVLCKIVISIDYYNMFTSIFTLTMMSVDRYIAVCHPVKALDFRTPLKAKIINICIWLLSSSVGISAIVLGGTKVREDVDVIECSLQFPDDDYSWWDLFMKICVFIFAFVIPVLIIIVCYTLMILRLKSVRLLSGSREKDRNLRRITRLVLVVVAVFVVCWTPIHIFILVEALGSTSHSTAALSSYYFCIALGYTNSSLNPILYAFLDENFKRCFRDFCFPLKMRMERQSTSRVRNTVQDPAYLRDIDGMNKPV", "format": "functional"}, "Streptococcus": {"tested_on": "Streptococcus", "experiment": "Group A Streptococcus viability loss, dose response, counter-screen for streptokinase expression inhibitor project, luminescence, BacTiterGlo (AID 1915);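 further: potency for reduction of bacterial viability or growth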", "format": "functional, organism-based", "details": "Streptococcus"}, "[2]": {"experiment": "NIH-3T3 fibroblast cytotoxicity, dose response, cytotoxicity control, cell-based, fluorescence, Alamar Blue, secondary assay (AID 2327);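 further: NIH-3T3 mouse fibroblasts cultured with fluconazole at 8 µg/mL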", "format": "functional"}, "Nonstructural protein 1": {"target": "Nonstructural protein 1 (Influenza A virus, UniProt Q194T2)", "sequence (Q194T2 whole entry)": "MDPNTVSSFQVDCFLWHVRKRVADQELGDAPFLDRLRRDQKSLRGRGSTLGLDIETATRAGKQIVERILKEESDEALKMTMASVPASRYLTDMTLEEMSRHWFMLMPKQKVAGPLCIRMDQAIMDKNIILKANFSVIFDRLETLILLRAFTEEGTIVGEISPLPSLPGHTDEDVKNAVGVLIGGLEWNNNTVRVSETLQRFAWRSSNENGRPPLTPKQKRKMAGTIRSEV", "format": "functional, Influenza A virus (A/California/07/2009(H1N1))"}, "[3]": {"experiment": "microbe, parasite or virus in culture", "format": "functional", "details": "Mycobacterium tuberculosis"}, "cells [4]": {"experiment": "cells", "format": "functional, cell-based"}, "cells [5]": {"experiment": "cells", "format": "functional, cell-based", "remark": "listed apart in the source"}, "[6]": {"target": "ATP-dependent molecular chaperone HSP82 (Candida albicans (strain WO-1) (Yeast), UniProt C4YTQ8)", "sequence (C4YTQ8 whole entry)": "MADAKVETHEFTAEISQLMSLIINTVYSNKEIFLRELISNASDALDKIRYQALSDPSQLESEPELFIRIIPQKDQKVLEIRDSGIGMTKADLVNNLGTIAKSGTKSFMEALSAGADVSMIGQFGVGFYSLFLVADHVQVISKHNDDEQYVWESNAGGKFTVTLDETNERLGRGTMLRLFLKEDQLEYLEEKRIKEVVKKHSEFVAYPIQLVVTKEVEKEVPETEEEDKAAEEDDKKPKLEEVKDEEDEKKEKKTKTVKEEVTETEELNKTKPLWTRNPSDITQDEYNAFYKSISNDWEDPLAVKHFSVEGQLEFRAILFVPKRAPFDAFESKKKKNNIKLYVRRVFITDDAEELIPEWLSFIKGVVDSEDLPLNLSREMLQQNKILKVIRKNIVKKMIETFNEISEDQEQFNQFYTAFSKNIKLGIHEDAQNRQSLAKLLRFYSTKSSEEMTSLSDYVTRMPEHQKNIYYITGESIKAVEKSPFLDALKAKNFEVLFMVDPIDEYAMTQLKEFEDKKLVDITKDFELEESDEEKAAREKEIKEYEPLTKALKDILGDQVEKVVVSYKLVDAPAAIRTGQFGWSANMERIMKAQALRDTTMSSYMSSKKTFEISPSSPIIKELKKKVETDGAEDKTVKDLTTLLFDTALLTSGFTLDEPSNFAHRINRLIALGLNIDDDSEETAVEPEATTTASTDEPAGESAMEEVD", "experiment": "loss of DOC-induced GRE-beta-galactosidase reporter signal, dose response, Hsp90 inhibitor project, S. cerevisiae, luminescence (AID 2400);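 further: beta-galactosidase luminescence from glucocorticoid response element reporter as proxy for Hsp90 function; inhibitor potency where signal loss means Hsp90 inhibition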", "format": "functional, cell-based"}, "[7]": {"target": "T1, Kappa-type opioid receptor", "format": "functional", "remark": "listed apart in the source"}, "Streptokinase A": {"target": "T2, Streptokinase A (Streptococcus pyogenes serotype M1, UniProt P10520)", "T2 sequence (P10520 whole entry)": "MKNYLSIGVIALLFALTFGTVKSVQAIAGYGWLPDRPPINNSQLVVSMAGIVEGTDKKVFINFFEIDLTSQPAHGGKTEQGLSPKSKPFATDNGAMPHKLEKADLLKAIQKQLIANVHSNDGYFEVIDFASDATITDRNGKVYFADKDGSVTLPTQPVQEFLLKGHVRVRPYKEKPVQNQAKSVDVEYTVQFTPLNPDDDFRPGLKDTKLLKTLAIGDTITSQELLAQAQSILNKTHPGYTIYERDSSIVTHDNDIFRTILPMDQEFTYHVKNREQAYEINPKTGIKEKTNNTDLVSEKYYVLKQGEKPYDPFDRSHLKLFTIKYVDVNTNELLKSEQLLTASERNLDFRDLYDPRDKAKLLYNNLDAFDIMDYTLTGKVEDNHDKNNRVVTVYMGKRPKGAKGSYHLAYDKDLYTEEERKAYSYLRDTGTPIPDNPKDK", "experiment": "S. pyogenes streptokinase expression inhibitors, potency, dose response, plasminogen activation absorbance, OD405 (AID 1914);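 further: secreted streptokinase activity via plasminogen activation per viability signal from cell pellet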", "format": "functional, Streptococcus pyogenes M1 GAS"}, "Beta-galactosidase": {"target": "Beta-galactosidase (Escherichia coli, UniProt Q8VNN2)", "sequence (Q8VNN2 whole entry)": "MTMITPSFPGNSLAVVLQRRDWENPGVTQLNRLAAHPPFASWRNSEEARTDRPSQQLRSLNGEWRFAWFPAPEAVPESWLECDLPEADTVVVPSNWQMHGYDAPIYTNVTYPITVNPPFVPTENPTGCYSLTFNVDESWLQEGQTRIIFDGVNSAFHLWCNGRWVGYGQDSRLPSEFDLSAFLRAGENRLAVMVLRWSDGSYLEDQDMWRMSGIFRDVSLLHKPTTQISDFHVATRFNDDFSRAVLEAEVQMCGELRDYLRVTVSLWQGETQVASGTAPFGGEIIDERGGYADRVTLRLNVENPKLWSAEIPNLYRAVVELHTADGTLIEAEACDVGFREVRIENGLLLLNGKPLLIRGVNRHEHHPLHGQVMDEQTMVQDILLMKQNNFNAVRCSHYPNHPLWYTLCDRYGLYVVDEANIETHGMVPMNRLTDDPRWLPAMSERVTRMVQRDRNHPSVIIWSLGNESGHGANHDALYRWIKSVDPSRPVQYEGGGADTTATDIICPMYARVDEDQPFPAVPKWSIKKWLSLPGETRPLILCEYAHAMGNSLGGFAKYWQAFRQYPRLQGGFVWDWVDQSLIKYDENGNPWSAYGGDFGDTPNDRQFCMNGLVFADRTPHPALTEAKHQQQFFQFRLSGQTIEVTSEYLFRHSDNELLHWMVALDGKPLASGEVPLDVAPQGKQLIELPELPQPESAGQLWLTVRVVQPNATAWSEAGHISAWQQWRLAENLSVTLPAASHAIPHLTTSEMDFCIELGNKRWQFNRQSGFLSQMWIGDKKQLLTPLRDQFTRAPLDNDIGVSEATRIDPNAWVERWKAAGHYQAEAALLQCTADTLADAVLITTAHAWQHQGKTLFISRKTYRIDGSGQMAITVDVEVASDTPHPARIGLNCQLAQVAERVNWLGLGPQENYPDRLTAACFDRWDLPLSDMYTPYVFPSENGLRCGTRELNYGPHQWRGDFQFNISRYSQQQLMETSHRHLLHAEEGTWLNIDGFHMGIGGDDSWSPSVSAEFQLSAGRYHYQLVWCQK", "format": "functional"}, "[8]": {"tested_on": "Streptococcus sp. 'group A'", "experiment": "growth inhibition of control SK(-) GAS strain, dose response, counter-screen for streptokinase expression inhibitor project, luminescence, kanamycin, BacTiterGlo, confirmation (AID 1900)", "format": "functional, organism-based", "details": "Streptococcus sp. 'group A'"}, "[9]": {"experiment": "cytotoxicity in HEK-293T cells, dose response, cytotoxicity control for TCR NF-kB inhibitor project, luminescence, T-cell screen hits (AID 489026);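 further: cells exposed to compound about 14 hours before the viability readout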", "format": "functional, cell-based"}, "HEK293": {"tested_on": "HEK293", "experiment": "inhibitors of LMP1-driven NF-kB reporter, dose response, cell-based, HEK293, luciferase, cherry-pick (AID 588343)", "format": "functional", "details": "Homo sapiens"}, "INS1": {"tested_on": "INS1", "experiment": "beta cell apoptosis inhibitors, cytokine rescue, dose response, luminescence, retest (AID 449756);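 further: cell death triggered by IL-1 beta plus TNF-alpha plus IFN-gamma mixture; protective hits raise ATP signal compared with cytokine alone wells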", "format": "functional, cell-based", "details": "Rattus norvegicus"}, "[10]": {"target": "Serine/threonine-protein phosphatase (Candida dubliniensis (strain CD36 / CBS 7987 / NCPF 3949 / NRRLY-17841) (Yeast), UniProt B9W6M3)", "sequence (B9W6M3 whole entry)": "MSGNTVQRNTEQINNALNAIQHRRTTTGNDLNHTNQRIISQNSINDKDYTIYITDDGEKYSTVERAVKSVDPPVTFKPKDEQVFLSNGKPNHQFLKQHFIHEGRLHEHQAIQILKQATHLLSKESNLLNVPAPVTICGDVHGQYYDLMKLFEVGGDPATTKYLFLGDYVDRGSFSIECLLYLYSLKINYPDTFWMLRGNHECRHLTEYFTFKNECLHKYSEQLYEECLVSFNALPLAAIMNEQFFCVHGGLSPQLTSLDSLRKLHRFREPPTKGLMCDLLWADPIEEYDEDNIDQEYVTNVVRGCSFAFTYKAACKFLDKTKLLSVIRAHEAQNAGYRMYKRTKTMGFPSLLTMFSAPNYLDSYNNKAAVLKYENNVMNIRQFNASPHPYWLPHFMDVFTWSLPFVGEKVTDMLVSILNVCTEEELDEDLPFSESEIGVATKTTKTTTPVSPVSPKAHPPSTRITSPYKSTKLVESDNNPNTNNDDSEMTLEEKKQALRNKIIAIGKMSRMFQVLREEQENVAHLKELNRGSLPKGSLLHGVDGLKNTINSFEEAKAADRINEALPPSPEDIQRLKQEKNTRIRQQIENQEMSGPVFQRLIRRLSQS", "experiment": "calcineurin pathway inhibitors in yeast reporter, dose response, S. cerevisiae, CDRE-lacZ, luminescence, secondary (AID 2388);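 further: yeast reporter cells carrying a calcineurin-responsive lacZ construct stimulated with calcium chloride; luminescent beta-galactosidase reporter signal in whole cells rather than isolated phosphatase activity; potency for inhibition where a drop in reporter signal means calcineurin blockade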", "format": "functional, cell-based"}, "[11]": {"experiment": "C. albicans growth with fluconazole, confirmation, fluorescence, retest (AID 2467)", "format": "functional, cell-based"}, "Paired box protein Pax-8": {"target": "Paired box protein Pax-8 (Homo sapiens, UniProt Q06710)", "sequence (Q06710 whole entry)": "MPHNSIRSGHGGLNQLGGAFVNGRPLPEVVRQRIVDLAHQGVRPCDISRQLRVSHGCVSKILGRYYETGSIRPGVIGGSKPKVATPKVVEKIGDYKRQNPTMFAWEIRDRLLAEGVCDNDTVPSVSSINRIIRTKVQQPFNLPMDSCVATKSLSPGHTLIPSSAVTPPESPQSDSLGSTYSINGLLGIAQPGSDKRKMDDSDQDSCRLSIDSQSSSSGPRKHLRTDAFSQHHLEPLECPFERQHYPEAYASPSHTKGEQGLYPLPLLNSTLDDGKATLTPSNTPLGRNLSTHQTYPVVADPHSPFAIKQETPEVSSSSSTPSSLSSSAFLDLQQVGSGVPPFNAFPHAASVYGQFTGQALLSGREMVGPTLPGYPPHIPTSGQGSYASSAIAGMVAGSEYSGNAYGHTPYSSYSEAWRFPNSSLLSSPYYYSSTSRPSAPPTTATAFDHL", "experiment": "inhibitors of PAX8-driven TPO luciferase reporter, dose response, RMG-I cells, cherry-pick (AID 687027);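 further: luciferase reporter driven by Pax8 target thyroperoxidase promoter measured by SteadyGlo luminescence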", "format": "functional, cell-based"}, "[12]": {"target": "Dual specificity tyrosine-phosphorylation-regulated kinase 1A (Rattus norvegicus, UniProt Q63470)", "format": "biochemical, Homo sapiens"}, "[13]": {"target": "Dual specificity protein kinase CLK1 (Homo sapiens, UniProt P49759)", "sequence (P49759 whole entry)": "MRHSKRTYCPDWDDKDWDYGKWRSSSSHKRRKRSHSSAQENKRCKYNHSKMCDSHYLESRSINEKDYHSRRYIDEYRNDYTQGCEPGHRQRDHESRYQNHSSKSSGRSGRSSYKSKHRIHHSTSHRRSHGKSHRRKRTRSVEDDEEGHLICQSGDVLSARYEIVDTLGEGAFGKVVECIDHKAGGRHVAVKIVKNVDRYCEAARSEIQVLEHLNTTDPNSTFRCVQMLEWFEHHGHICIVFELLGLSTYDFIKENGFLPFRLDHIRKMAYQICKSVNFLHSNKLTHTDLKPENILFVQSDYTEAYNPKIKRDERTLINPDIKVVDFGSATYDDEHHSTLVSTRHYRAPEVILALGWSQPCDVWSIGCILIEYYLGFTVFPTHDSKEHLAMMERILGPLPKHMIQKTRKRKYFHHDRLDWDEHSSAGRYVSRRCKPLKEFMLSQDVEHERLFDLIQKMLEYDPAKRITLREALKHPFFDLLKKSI", "experiment": "CLK1 kinase inhibitors, off-target check, dose response, selectivity assay for Dyrk1A inhibitor project, biochemical, cherry-picked samples (AID 588811)"}},
  "note": "Activity calls are given as the source filed them. For most assays here, no stated cut-off is given here; in the data, actives have a measured EC50 and inactives only a lower limit.",
  "data": [
    {"smiles": "C=CCNC(=S)N/N=C(\\C)c1ccccn1", "values": [
      {"measurement": "IC50", "setting": "[1]", "result": "> 32", "unit": "µM"},
      {"measurement": "EC50", "setting": "Streptococcus", "result": "> 150 µM (not active)"},
      {"measurement": "EC50", "setting": "[2]", "result": "40.7 µM (inconclusive)"},
      {"measurement": "IC50", "setting": "Nonstructural protein 1", "result": "2.5 µM (active)"},
      {"measurement": "CC50", "setting": "[3]", "result": "< 0.08 µM (active)"},
      {"measurement": "EC50", "setting": "cells [4]", "result": "> 350 µM (not active)"},
      {"measurement": "EC50", "setting": "cells [5]", "result": "9.83 µM (active)"},
      {"measurement": "EC50", "setting": "[6]", "result": "> 150 µM (inactive)"},
      {"measurement": "IC50", "setting": "[7]", "result": "3.27 µM (active)"},
      {"measurement": "EC50", "setting": "Streptokinase A", "result": "> 150 µM (not active)"},
      {"measurement": "EC50", "setting": "Beta-galactosidase", "result": "> 31.5 µM (inactive)"},
      {"measurement": "EC50", "setting": "[8]", "result": "2 µM (active)"},
      {"measurement": "IC50", "setting": "[9]", "result": "> 80 µM (inactive)"},
      {"measurement": "AC50", "setting": "HEK293", "result": "0.493 µM (active)"},
      {"measurement": "AC50", "setting": "INS1", "result": "< 0.195 µM (active)"},
      {"measurement": "EC50", "setting": "[10]", "result": "> 180 µM (inactive)"},
      {"measurement": "EC50", "setting": "[11]", "result": "0.146 µM (active)"},
      {"measurement": "AC50", "setting": "Paired box protein Pax-8", "result": "< 0.26 µM (active)"}
    ]},
    {"smiles": "COc1ccc(-c2cc(NCCc3ccncc3)n3ncnc3n2)cc1", "values": [
      {"measurement": "AC50", "setting": "[12]", "result": "> 120 µM (inactive)"},
      {"measurement": "AC50", "setting": "[13]", "result": "18.6 µM (active)"}
    ]},
    {"smiles": "Cc1cc(C(=O)Nc2sc3c(c2C#N)CCCC3)no1", "values": [
      {"measurement": "EC50", "setting": "[2]", "result": "> 160 µM (inactive)"},
      {"measurement": "EC50", "setting": "[6]", "result": "24.9 µM (active)"},
      {"measurement": "EC50", "setting": "[10]", "result": "> 180 µM (inactive)"},
      {"measurement": "EC50", "setting": "[11]", "result": "2.21 µM (active)"}
    ]}
  ]
}
